Results from article PMC6792352, “Limited Chemical Structural Diversity Found to Modulate Thyroid Hormone Receptor in the Tox21 Chemical Library” (Environmental Health Perspectives, 2019).
Structures can show the parent of a compound that is named as a salt.

Assay: in vitro
Settings: rat, gh3-tre-luc cells

SMILES | CC50 at 24 h (AC50 (uM) modified / 1000) [µM] | also measured
CN(C)CCCOc1nn(Cc2ccccc2)c2ccccc12 [Benzydamine hydrochloride] | 6.35 | 
NC(=O)c1nc(-c2cccc(-c3cc(F)ccc3OCC(F)(F)C(F)(F)F)c2)n[nH]1 [MK-274] | 53.5 | 
O=C(O)c1cccnc1 [Nicotinic acid] | > 50 | 
Nc1ccc([N+](=O)[O-])c(N)c1 [4-Nitro-1,3-benzenediamine] | 64.4 | 
OCC(c1ccc(Cl)cc1)c1ccc(Cl)cc1 [2,2-Bis(4-chlorophenyl)ethanol] |  | CC50 at 24 h (AC50 (uM) modified / 1000, Tox21_110001=Tox21_300725, viability, 1 nM T3 present, 24 h): > 90 µM
CCOC(=O)c1ncn2c1CN(C)C(=O)c1cc(F)ccc1-2 [Flumazenil] | > 50 | 
OCc1cccc(Oc2ccccc2)c1 [3-Phenoxybenzenemethanol] | > 90 | 
CC(=O)Nc1c(I)c(NC(C)=O)c(I)c(C(=O)O)c1I [Diatrizoic acid dihydrate] | > 50 | 
CCOC(=N)CC(=O)OCC [Ethyl 3-ethoxy-3-iminopropionate hydrochloride] | > 90 | 
O=C(Cl)/C=C/C(=O)Cl [Fumaryl chloride] | > 90 | 
Cn1cnc2c(F)c(Nc3ccc(Br)cc3Cl)c(C(=O)NOCCO)cc21 [Selumetinib] | > 50 | 
Cc1cccc(C(=O)O)c1O [2-Hydroxy-3-methylbenzoic acid] | > 50 | 
CC(C)c1c(CN(C)C(C)Cc2ccccc2)n(C)n(-c2ccccc2)c1=O (stereo not drawn) [Famprofazone] | > 20 | 
C=C[C@]1(C)C[C@@H](OC(=O)CSC(C)(C)CNC(=O)[C@H](N)C(C)C)[C@]2(C)[C@H](C)CC[C@]3(CCC(=O)[C@H]32)[C@@H](C)[C@@H]1O [Valnemulin] | 2.37 | 
NC(=O)c1ccc([N+](=O)[O-])cc1 [4-Nitrobenzamide] | > 90 | 
O=C1c2ccccc2C(=O)C1c1ccccc1 [Phenindione] | > 20 | 
CCCCCCOC(=O)c1ccc(O)cc1 [Hexylparaben] | 56.8 | 
O=C(O)c1cc2ccccc2c(Cc2c(O)c(C(=O)O)cc3ccccc23)c1O [Pamoic acid] | > 50 | 
C#C[C@]1(O)CC[C@H]2[C@@H]3CCC4=CC(=NO)CC[C@@H]4[C@H]3CC[C@@]21CC [Norelgestromin] | 35.1 | 
O=C1C=C2C=C[C@@H]3C[C@@]2(O1)[C@H]1CCCCN31 [Securinine] | 15.3 | 
CCCC(C)C1(CC)C(=O)NC(=S)NC1=O (stereo not drawn) [Thiopental sodium] | > 50 | 

SMILES | CC50 at 24 h (AC50 (uM) modified / 1000) [µM] | also measured
O=C1CC2(CCCC2)CC(=O)N1CCNCC1COc2ccccc2O1 (stereo not drawn) [Binospirone mesylate] | 41.9 | 
CCCc1ccc(O)cc1 [4-Propylphenol] | > 90 | 
CCN1CCN(c2cc(-c3ccc(F)cc3)c3c(n2)CCCCCC3)CC1 [Blonanserin] | 20.1 | 
CCCCOC(=O)c1ccc(O)cc1 [Butylparaben] | > 50 | 
CCOC(=O)[C@@H](N)CS [Ethyl L-cysteinate hydrochloride] | > 50 | 
Cc1ccc(N)c([N+](=O)[O-])c1 [4-Methyl-2-nitroaniline] | > 90 | 
OC[C@H]1O[C@H](O[C@@]2(CO)O[C@@H](O)[C@H](O)[C@@H]2O)[C@H](O)[C@@H](O)[C@@H]1O [alpha-L-Lyxo-hex-5-ulofuranosyl alpha-D-glucopyranoside] | > 50 | 
CCCCOC(=O)CO [Butyl hydroxyacetate] | > 90 | 
Cc1ccccc1O [o-Cresol] |  | CC50 at 24 h (AC50 (uM) modified / 1000, Tox21_110001=Tox21_202305, viability, 1 nM T3 present, 24 h): > 90 µM
O=C(O)/C=C/c1ccc(O)c(O)c1 [Caffeic acid] | > 90 | 
CCCCCCCCCl [1-Chlorooctane] |  | CC50 at 24 h (AC50 (uM) modified / 1000, Tox21_110001=Tox21_201715, viability, 1 nM T3 present, 24 h): > 90 µM
O=C(O)CN(CC(=O)O)CC(=O)O [Nitrilotriacetic acid] | > 90 | 
O=C(O)COc1ccc(Cl)cc1Cl [2,4-D, Dimethylamine salt] | > 90 | 
O=C(CCc1ccc(O)cc1)c1c(O)cc(O)cc1O [Phloretin] | 61.2 | 
CCCC(CCC)C(N)=O [Valpromide] | > 50 | 
C[C@H](N[C@@H](CCc1ccccc1)C(=O)O)C(=O)N1CCC[C@H]1C(=O)O [Enalapril acid] | > 50 | 
Cc1ccc(NC=O)c(C)c1 [N-(2,4-Dimethylphenyl)formamide] | > 90 | 
C#CCN1CC(=O)N(COC(=O)C2C(C=C(C)C)C2(C)C)C1=O (stereo not drawn) [Imiprothrin] | > 50 | 
Brc1c(NC2=NCCN2)ccc2nccnc12 [Brimonidine] | > 50 | 
NC(=O)N1C(=O)/C(=C(\O)c2cccs2)c2cc(Cl)ccc21 [Tenidap] | 41.8 | 
CC(C)CC(C)N (stereo not drawn) [1,3-Dimethylbutylamine] |  | CC50 at 24 h (AC50 (uM) modified / 1000, Tox21_110001=Tox21_201157, viability, 1 nM T3 present, 24 h): > 90 µM
